Earlier results as cited in patent US11590100B2, “Composition for buccal or sublingual administration of cannabis extract and methods for making same” (PANAXIA PHARMACEUTICAL INDUSTRIES LTD., priority 2017, dated 2023).

## CCCCCc1cc(O)c2c(c1)OC(C)(C)[C@@H]1CCC(C)=C[C@@H]21 [THC, Delta-9-tetrahydrocannabinol]
After oral administration
  peak effect: 2 to 4 h
After single oral doses
  absorbed: 90-95%
oral, first pass hepatic metabolism and poor aqueous solubility
  administered dose reaching the systemic circulation: 10-20%
